Data from patent US12459932B2, “KIF18A inhibitors” (AMGEN INC., priority 2018, dated 2025).

Target: T1, Recombinant human KIF18A (1-467 His-tagged) (Homo sapiens, UniProt Q8NI77)
T1 construct: Recombinant human KIF18A (1-467 His-tagged) protein; His
Assay: KIF18A Enzyme Assay: microtubule-stimulated ATPase activity (ADP-Glo)
Assay type: biochemical
Details: 30 nM KIF18A, 30 μg/mL pig microtubules, ATP 75 μM (Km), ADP-Glo luminescence
Method: KIF18A Enzyme Assay: Microtubule-stimulated ATPase activity assay is used to measure KIF18A enzyme activity after treatment with compound. Compounds were 2-fold serially diluted in DMSO (Sigma Inc) over 22-point concentration range. […] The assay measures ADP formed from the ATPase reaction. […] Read luminescence using EnVision microplate reader with ultra-luminescence module (Perkin Elmer Inc). Concentration-response curve-fitting and IC50 determination was performed using Genedata Screener Software (Standard 15.0.1, Genedata Inc) with a four-parameter logistic regression fit model.

T1 sequence (Q8NI77 1-467): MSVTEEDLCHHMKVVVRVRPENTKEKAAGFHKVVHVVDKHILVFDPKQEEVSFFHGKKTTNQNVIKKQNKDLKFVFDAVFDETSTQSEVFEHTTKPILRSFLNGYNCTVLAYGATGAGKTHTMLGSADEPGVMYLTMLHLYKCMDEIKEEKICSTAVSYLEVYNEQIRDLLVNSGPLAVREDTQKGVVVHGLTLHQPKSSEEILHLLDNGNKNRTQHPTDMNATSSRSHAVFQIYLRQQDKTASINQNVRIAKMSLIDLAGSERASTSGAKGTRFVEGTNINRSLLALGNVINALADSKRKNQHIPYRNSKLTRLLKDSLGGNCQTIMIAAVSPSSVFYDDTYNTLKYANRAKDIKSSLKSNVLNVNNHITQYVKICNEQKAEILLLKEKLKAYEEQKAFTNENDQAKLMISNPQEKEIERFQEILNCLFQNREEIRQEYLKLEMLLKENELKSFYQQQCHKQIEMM
T1 sequence (P02550 whole entry partner): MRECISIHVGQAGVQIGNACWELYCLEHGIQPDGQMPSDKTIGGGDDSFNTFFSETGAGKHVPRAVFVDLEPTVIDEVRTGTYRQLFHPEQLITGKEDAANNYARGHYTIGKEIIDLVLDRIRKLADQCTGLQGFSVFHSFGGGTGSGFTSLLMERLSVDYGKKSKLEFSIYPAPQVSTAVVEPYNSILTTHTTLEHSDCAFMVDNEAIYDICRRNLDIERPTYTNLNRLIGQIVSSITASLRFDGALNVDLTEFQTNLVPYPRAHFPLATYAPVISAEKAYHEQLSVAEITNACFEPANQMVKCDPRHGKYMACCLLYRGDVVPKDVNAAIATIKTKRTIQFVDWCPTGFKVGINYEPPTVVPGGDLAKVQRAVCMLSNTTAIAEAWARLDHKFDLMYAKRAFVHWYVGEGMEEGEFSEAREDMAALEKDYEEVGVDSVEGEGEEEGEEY
T1 sequence (P02554 whole entry partner): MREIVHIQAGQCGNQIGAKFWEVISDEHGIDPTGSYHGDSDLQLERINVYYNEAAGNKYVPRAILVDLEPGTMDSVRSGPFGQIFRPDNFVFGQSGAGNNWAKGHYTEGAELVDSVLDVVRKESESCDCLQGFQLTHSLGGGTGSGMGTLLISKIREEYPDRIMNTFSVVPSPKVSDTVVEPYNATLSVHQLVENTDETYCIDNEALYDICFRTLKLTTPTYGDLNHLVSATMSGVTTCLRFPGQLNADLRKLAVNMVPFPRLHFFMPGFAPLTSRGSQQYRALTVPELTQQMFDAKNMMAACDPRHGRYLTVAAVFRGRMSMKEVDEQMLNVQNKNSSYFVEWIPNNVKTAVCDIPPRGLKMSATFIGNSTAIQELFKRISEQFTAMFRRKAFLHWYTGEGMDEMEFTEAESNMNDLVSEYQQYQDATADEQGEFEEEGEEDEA

Structure (SMILES): CC1(S(=O)(=O)Nc2ccc(C(=O)Nc3cccc(N4CCC(F)(F)C4)n3)c(N3CCC4(CC3)CC4)c2)CC1 [Example 3-5, N-(6-(3,3-Difluoropyrrolidin-1-yl)pyridin-2-yl)-4-((1-methylcyclopropane)-1-sulfonamido)-2-(6-azaspiro[2.5]octan-6-yl)benzamide]
- IC50: 45 nM

Structure (SMILES): CC1(S(=O)(=O)Nc2ccc(C(=O)Nc3cccc(N4CCC[C@@H](CO)C4)n3)c(N3CCC4(CC3)CC4)c2)CC1 [Example 3-6, (R)-N-(6-(3-(Hydroxymethyl)piperidin-1-yl)pyridin-2-yl)-4-((1-methylcyclopropane)-1-sulfonamido)-2-(6-azaspiro[2.5]octan-6-yl)benzamide]
- IC50: 86 nM

Structure (SMILES): CC1(S(=O)(=O)Nc2ccc(C(=O)Nc3cccc(N4CCC[C@H](CO)C4)n3)c(N3CCC4(CC3)CC4)c2)CC1 [Example 3-7, (S)-N-(6-(3-(Hydroxymethyl)piperidin-1-yl)pyridin-2-yl)-4-((1-methylcyclopropane)-1-sulfonamido)-2-(6-azaspiro[2.5]octan-6-yl)benzamide]
- IC50: 65 nM

Structure (SMILES): CC1(O)CCN(c2cccc(NC(=O)c3ccc(NS(=O)(=O)C4(C)CC4)cc3N3CCC4(CC3)CC4)n2)CC1 [Example 3-8, N-(6-(4-Hydroxy-4-methylpiperidin-1-yl)pyridin-2-yl)-4-((1-methylcyclopropane)-1-sulfonamido)-2-(6-azaspiro[2.5]octan-6-yl)benzamide]
- IC50: 243 nM

Structure (SMILES): CC1(S(=O)(=O)Nc2ccc(C(=O)Nc3cccc(N4CCC[C@](C)(O)C4)n3)c(N3CCC4(CC3)CC4)c2)CC1 [Example 3-9, (S)-N-(6-(3-Hydroxy-3-methylpiperidin-1-yl)pyridin-2-yl)-4-((1-methylcyclopropane)-1-sulfonamido)-2-(6-azaspiro[2.5]octan-6-yl)benzamide]
- IC50: 175 nM

Structure (SMILES): CC1(S(=O)(=O)Nc2ccc(C(=O)Nc3cccc(N4CCC[C@@](C)(O)C4)n3)c(N3CCC4(CC3)CC4)c2)CC1 [Example 3-10, (R)-N-(6-(3-Hydroxy-3-methylpiperidin-1-yl)pyridin-2-yl)-4-((1-methylcyclopropane)-1-sulfonamido)-2-(6-azaspiro[2.5]octan-6-yl)benzamide]
- IC50: 143 nM

Structure (SMILES): CC1(S(=O)(=O)Nc2ccc(C(=O)Nc3cccc(N4CCO[C@@H](CO)C4)n3)c(N3CCC4(CC3)CC4)c2)CC1 [Example 3-11, (R)-N-(6-(2-(Hydroxymethyl)morpholino)pyridin-2-yl)-4-((1-methylcyclopropane)-1-sulfonamido)-2-(6-azaspiro[2.5]octan-6-yl)benzamide]
- IC50: 73 nM

Structure (SMILES): CC1(S(=O)(=O)Nc2ccc(C(=O)Nc3cccc(N4CCO[C@H](CO)C4)n3)c(N3CCC4(CC3)CC4)c2)CC1 [Example 3-12, (S)-N-(6-(2-(Hydroxymethyl)morpholino)pyridin-2-yl)-4-((1-methylcyclopropane)-1-sulfonamido)-2-(6-azaspiro[2.5]octan-6-yl)benzamide]
- IC50: 81 nM

Structure (SMILES): CC1(F)CCN(c2cccc(NC(=O)c3ccc(NS(=O)(=O)C4(C)CC4)cc3N3CCC4(CC3)CC4)n2)CC1 [Example 3-13, N-(6-(4-Fluoro-4-methylpiperidin-1-yl)pyridin-2-yl)-4-((1-methylcyclopropane)-1-sulfonamido)-2-(6-azaspiro[2.5]octan-6-yl)benzamide]
- IC50: 373 nM

Structure (SMILES): CC1(S(=O)(=O)Nc2ccc(C(=O)Nc3cccc(N4CCCC(F)(F)C4)n3)c(N3CCC4(CC3)CC4)c2)CC1 [Example 3-14, N-(6-(3,3-Difluoropiperidin-1-yl)pyridin-2-yl)-4-((1-methylcyclopropane)-1-sulfonamido)-2-(6-azaspiro[2.5]octan-6-yl)benzamide]
- IC50: 38 nM

Structure (SMILES): CC1(S(=O)(=O)Nc2ccc(C(=O)Nc3cccc(N4CCc5cc(Cl)ccc54)n3)c(N3CCC4(CC3)CC4)c2)CC1 [Example 3-15, N-(6-(5-Chloroindolin-1-yl)pyridin-2-yl)-4-((1-methylcyclopropane)-1-sulfonamido)-2-(6-azaspiro[2.5]octan-6-yl)benzamide]
- IC50: 33 nM

Structure (SMILES): CC1(S(=O)(=O)Nc2ccc(C(=O)Nc3cccc(N4CC(F)C4)n3)c(N3CCC4(CC3)CC4)c2)CC1 [Example 3-16, N-(6-(3-Fluoroazetidin-1-yl)pyridin-2-yl)-4-((1-methylcyclopropane)-1-sulfonamido)-2-(6-azaspiro[2.5]octan-6-yl)benzamide]
- IC50: 58 nM

Structure (SMILES): CC1(S(=O)(=O)Nc2ccc(C(=O)Nc3cccc(N4CCCCC4)n3)c(N3CCC4(CC3)CC4)c2)CC1 [Example 3-17, 4-((1-Methylcyclopropane)-1-sulfonamido)-N-(6-(piperidin-1-yl)pyridin-2-yl)-2-(6-azaspiro[2.5]octan-6-yl)benzamide]
- IC50: 34 nM

Structure (SMILES): CC1(S(=O)(=O)Nc2ccc(C(=O)Nc3cccc(N4CC(F)(F)C4)n3)c(N3CCC4(CC3)CC4)c2)CC1 [Example 3-18, N-(6-(3,3-Difluoroazetidin-1-yl)pyridin-2-yl)-4-((1-methylcyclopropane)-1-sulfonamido)-2-(6-azaspiro[2.5]octan-6-yl)benzamide]
- IC50: 48 nM

Structure (SMILES): Cc1cc(NC(=O)c2ccc(NS(=O)(=O)C3(C)CC3)cc2N2CCC3(CC2)CC3)nc(N2CC(F)(F)C2)c1 [Example 3-19, N-(6-(3,3-Difluoroazetidin-1-yl)-4-methylpyridin-2-yl)-4-((1-methylcyclopropane)-1-sulfonamido)-2-(6-azaspiro[2.5]octan-6-yl)benzamide]
- IC50: 103 nM

Structure (SMILES): CC1(S(=O)(=O)Nc2ccc(C(=O)Nc3cccc(N4CCC5(CC5)C4)n3)c(N3CCC4(CC3)CC4)c2)CC1 [Example 3-20, N-(6-(5-Azaspiro[2.4]heptan-5-yl)pyridin-2-yl)-4-((1-methylcyclopropane)-1-sulfonamido)-2-(6-azaspiro[2.5]octan-6-yl)benzamide]
- IC50: 50 nM

Structure (SMILES): CC1(S(=O)(=O)Nc2ccc(C(=O)Nc3cccc(N4CCC(C#N)CC4)n3)c(N3CCC4(CC3)CC4)c2)CC1 [Example 3-21, N-(6-(4-Cyanopiperidin-1-yl)pyridin-2-yl)-4-((1-methylcyclopropane)-1-sulfonamido)-2-(6-azaspiro[2.5]octan-6-yl)benzamide]
- IC50: 91 nM

Structure (SMILES): CC1(S(=O)(=O)Nc2ccc(C(=O)Nc3cccc(N4CCCC(C#N)C4)n3)c(N3CCC4(CC3)CC4)c2)CC1 (centres unmarked) [Example 3-22, N-(6-(3-Cyanopiperidin-1-yl)pyridin-2-yl)-4-((1-methylcyclopropane)-1-sulfonamido)-2-(6-azaspiro[2.5]octan-6-yl)benzamide]
- IC50: 86 nM

Structure (SMILES): CS(=O)(=O)Cc1ccc(C(=O)Nc2cccc(N3CCC[C@@H](O)C3)n2)c(N2CCC3(CC2)CC3)c1 [Example 4, (R)-N-(6-(3-hydroxypiperidin-1-yl)pyridin-2-yl)-4-((methylsulfonyl)methyl)-2-(6-azaspiro[2.5]octan-6-yl)benzamide]
- IC50: 94 nM

Structure (SMILES): CC(C)(O)c1cccc(NC(=O)c2ccc(NS(=O)(=O)C3(C)CC3)cc2N2CCC3(CC2)CC3)n1 [Example 4-1, N-(6-(2-Hydroxypropan-2-yl)pyridin-2-yl)-4-((1-methylcyclopropane)-1-sulfonamido)-2-(6-azaspiro[2.5]octan-6-yl)benzamide]
- IC50: 128 nM

Structure (SMILES): CC1(NS(=O)(=O)c2ccc(C(=O)Nc3cccc(C(C)(C)O)n3)c(N3CCC4(CC3)CC4)c2)COC1 [Example 4-2, N-(6-(2-Hydroxypropan-2-yl)pyridin-2-yl)-4-(N-(3-methyloxetan-3-yl)sulfamoyl)-2-(6-azaspiro[2.5]octan-6-yl)benzamide]
- IC50: 80 nM

Structure (SMILES): CC(C)(C)NS(=O)(=O)c1ccc(C(=O)Nc2cccc(N3CCO[C@H](CO)C3)n2)c(N2CCC3(CC2)CC3)c1 [Example 4-3, (S)-4-(N-(tert-Butyl)sulfamoyl)-N-(6-(2-(hydroxymethyl)morpholino)pyridin-2-yl)-2-(6-azaspiro[2.5]octan-6-yl)benzamide]
- IC50: 86 nM

Structure (SMILES): CS(=O)(=O)c1ccc(C(=O)Nc2cccc(C3CC3)n2)c(N2CCC3(CC2)CC3)c1 [Example 4-4, N-(6-Cyclopropylpyridin-2-yl)-4-(methylsulfonyl)-2-(6-azaspiro[2.5]octan-6-yl)benzamide]
- IC50: 180 nM

Structure (SMILES): CC(C)c1cccc(NC(=O)c2ccc(S(C)(=O)=O)cc2N2CCC3(CC2)CC3)n1 [Example 4-5, N-(6-Isopropylpyridin-2-yl)-4-(methylsulfonyl)-2-(6-azaspiro[2.5]octan-6-yl)benzamide]
- IC50: 179 nM

Structure (SMILES): CC(C)(C)c1cccc(NC(=O)c2ccc(S(C)(=O)=O)cc2N2CCC3(CC2)CC3)n1 [Example 4-6, N-(6-(tert-Butyl)pyridin-2-yl)-4-(methylsulfonyl)-2-(6-azaspiro[2.5]octan-6-yl)benzamide]
- IC50: 166 nM

Structure (SMILES): CC(C)(O)c1cccc(NC(=O)c2ccc(S(C)(=O)=O)cc2N2CCC3(CC2)CC3)n1 [Example 4-7, N-(6-(2-Hydroxypropan-2-yl)pyridin-2-yl)-4-(methylsulfonyl)-2-(6-azaspiro[2.5]octan-6-yl)benzamide]
- IC50: 315 nM

Structure (SMILES): CC(C)(C)NS(=O)(=O)c1cccc(NC(=O)c2ccc(S(C)(=O)=O)cc2N2CCC3(CC2)CC3)n1 [Example 4-8, N-(6-(N-(tert-Butyl)sulfamoyl)pyridin-2-yl)-4-(methylsulfonyl)-2-(6-azaspiro[2.5]octan-6-yl)benzamide]
- IC50: 76 nM

Structure (SMILES): CC1(S(=O)(=O)Nc2ccc(C(=O)Nc3cccc(N4CCC(F)(F)CC4)n3)c(N3CCC4(CC3)CC4)c2)CC1 [Example 4-9, N-(6-(4,4-Difluoropiperidin-1-yl)pyridin-2-yl)-4-((1-methylcyclopropane)-1-sulfonamido)-2-(6-azaspiro[2.5]octan-6-yl)benzamide]
- IC50: 46 nM

Structure (SMILES): Cc1cc(NC(=O)c2ccc(NS(=O)(=O)C3(C)CC3)cc2N2CCC3(CC2)CC3)nc(N2CCC(F)(F)CC2)c1 [Example 4-10, N-(6-(4,4-Difluoropiperidin-1-yl)-4-methylpyridin-2-yl)-4-((1-methylcyclopropane)-1-sulfonamido)-2-(6-azaspiro[2.5]octan-6-yl)benzamide]
- IC50: 95 nM
